Publication PMC8822125, “RW-BP100-4D, a Promising Antimicrobial Candidate With Broad-Spectrum Bactericidal Activity” (Frontiers in Microbiology, 2022)
Converted amounts (≈) assume the structure as drawn. Where a SMILES comes first, the peptide text is derived from it. Where no end group is shown, it is not given here.

How the values were obtained:
[1] = system: Escherichia coli and Psudomnas aeruginosa isolates; parameters: method as in Ferre et al., 2009; conditions: ref Ferre et al., 2009; cited from earlier work
S. enterica ATCC13076 = experiment: Intracellular antibacterial activity in MAC-T cells; assay type: cell-based, Salmonella enterica; conditions: 2 h, infected MAC-T cells
Experimental: (§1) The intracellular antibacterial activity of RW-BP100-4D against S. aureus ATCC29213 and S. enterica ATCC13076 were determined as described previously ([John et al., 2019]). MAC-T cells were cultured in a 12-well plate and then infected with S. aureus ATCC29213 or S. enterica ATCC13076 (∼10^5CFU, MOI = 10) for 1 h. The spare bacteria were eliminated by treating with kanamycin (100 μg/mL) for 1 h. After that, kanamycin was removed by washing with PBS for 4 times. Then RW-BP100-4D or RW-BP100 were added to a final concentration of 50 μg/mL, respectively and incubated for 2 h. Meanwhile, kanamycin (50 μg/mL) and PBS were set as the antibiotic treatment group and treatment control group, respectively. Finally, MAC-T cells were treated with 0.1% TritonX-100. The lysates were serially diluted and spread on selective agar plates to enumerate the intracellular live bacteria. Each test was performed with three independent repeats.

HeLa = conditions: peptide concentration 11 μM; ref Torcato et al., 2013; cited from earlier work
various microorganisms = experiment: MIC/MBC, summary statements over several strains; assay type: cell-based; conditions: for MIC against S. aureus ATCC29213 and E. coli ATCC25922 (both strains together): summary of Table 1
S. aureus ATCC29213 = experiment: Intracellular antibacterial activity in MAC-T cells; assay type: cell-based, Staphylococcus aureus; conditions: 2 h, infected MAC-T cells
Experimental: as §1

human erythrocytes = conditions: peptide 4.9 μM; ref Torcato et al., 2013; cited from earlier work
[2] = system: methicillin-resistant S. aureus ATCC33591; experiment: Mouse bacteremia model; assay type: in vivo; conditions: 25 mg/kg intraperitoneal 2 h after infection; 24 h
Experimental: (§2) Female ICR mice (∼18 g, four weeks old) bought from Yangzhou University were used in this study. They were reared with ad libitum access to drinking water and antibiotic-free feed. The animal experiments were conducted in strict accordance with the Laboratory Animal Welfare and Animal Experimental Ethical Certificate, as issued by Committee on Animal Welfare and Experimental Ethics in Jiangsu Academy of Agricultural Sciences (approval no. JAAS20200516 and JAAS20211208).
(§3) The mouse skin infection model and bacteremia model were established to evaluate the treatment efficacy of RW-BP100-4D on local and system infections, respectively. In each model, ICR female mice were equally allocated into different treatment groups and each group contained six mice. The mouse skin infection model and bacteremia model were constructed according to previously described methods ([Natalia et al., 2019]; [Song et al., 2020]). The mice were challenged with methicillin-resistant S. aureus ATCC33591 (mecA+, MRSA) via spreading on skin lesion (5 × 10^5 CFU/mL, 0.1 mL) or intraperitoneal injection (3.0 × 10^8CFU/mL, 0.5 mL). […] S. aureus isolates were counted by using the Chromagar selective agar (Chromagar, France) supplemented with 8 μg/mL oxacillin.

[3] = system: S. aureus ATCC29213 mature biofilm; experiment: Mature biofilm dispersal assay (crystal violet); assay type: cell-based, Staphylococcus aureus; conditions: peptide 200 μg/mL, 30 min, 37°C on 24 h biofilm, crystal violet OD590
Experimental: Each test was performed with three independent repeats.

[4] = system: methicillin-resistant S. aureus ATCC33591; experiment: Mouse skin infection model; assay type: in vivo; conditions: 24 h
Experimental: as §2, §3

MAC-T cells = conditions: peptide 150 μg/mL, 24 h, WST-1, mean ± SD, three repeats
RAW264.7 cells = conditions: peptide 150 μg/mL, 24 h, WST-1, mean ± SD, three repeats
[5] = system: Staphylococcus aureus ATCC29213; experiment: MIC/MBC, broth microdilution; assay type: cell-based; conditions: Table 1; broth microdilution CLSI M100-S25, MH broth, 37°C, 18 h, three independent repeats
[6] = system: Escherichia coli ATCC25922; conditions: Table 1; broth microdilution CLSI M100-S25, MH broth, 37°C, 18 h, three independent repeats
sheep red blood cells = sheep red blood cells in PBS, 37°C, 1 h, OD576, relative to melittin, mean ± SD, three repeats; for Hemolytic rate, 50 μg/mL: 50 μg/mL peptide; for Hemolytic rate, 100 μg/mL: 100 μg/mL peptide; for Hemolytic rate, 150 μg/mL: 150 μg/mL peptide; for Hemolytic rate, 300 μg/mL: 300 μg/mL peptide;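 on all read-outs here: hemolysis expressed in % from supernatant absorbance, with PBS-treated cells as 0% baseline and melittin as 100%, peptide mixed 1:1 with an 8% v/v erythrocyte suspension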

| Molecule | Cell survival rate, MAC-T (MAC-T cells) [%] | Cell survival rate, RAW264.7 (RAW264.7 cells) [%] | MIC against S. aureus ATCC29213 and E. coli ATCC25922 (both strains together) (various microorganisms) [µg/mL] | MIC Staphylococcus aureus ATCC29213 [5] [µg/mL] | MIC Escherichia coli ATCC25922 [6] [µg/mL] | Hemolytic rate, 50 μg/mL (sheep red blood cells) [%] | Hemolytic rate, 100 μg/mL (sheep red blood cells) [%] | Hemolytic rate, 150 μg/mL (sheep red blood cells) [%] | Hemolytic rate, 300 μg/mL (sheep red blood cells) [%] | also measured |
| --- | --- | --- | --- | --- | --- | --- | --- | --- | --- | --- |
| KKLFKKILKYL-NH2 [BP100, short cationic AMP of 11 amino acids (…-NH2), hybrid of cecropin A and melittin] |  |  |  |  |  |  |  |  |  | MIC against Escherichia coli and Psudomnas aeruginosa isolates [1]: 2.5 to 5 µM |
| RRLFRRILRWL-NH2 [RW-BP100] |  |  |  |  |  |  |  |  |  | Elimination of intracellular S. enterica ATCC13076 (S. enterica ATCC13076; peptide 50 μg/mL, CFU count): 2.57 log; Cell death rate of HeLa (HeLa): 73%; MBC values relative to the corresponding MIC values (various microorganisms; over the strains of Table 2): 4–8 fold; Elimination of intracellular S. aureus ATCC29213 (S. aureus ATCC29213; peptide 50 μg/mL, CFU count): 2.34 log; Hemolytic rate toward human erythrocytes (human erythrocytes): 50%; Bacterial loads in heart, liver and kidney at 25 mg/kg [2]: did not significantly reduce; Mature biofilm matrix lost compared to the PBS control [3]: 29.4%; Reduction of S. aureus ATCC33591 in infected mouse skin ([4]; peptide 50 μg (1 mg/mL, 50 μL) on skin lesion 2 h after infection, ICR female mice): 3.13 log |
| CC[C@H](C)[C@H](NC(=O)[C@H](CCCNC(=N)N)NC(=O)[C@H](CCCNC(=N)N)NC(=O)[C@H](Cc1ccccc1)NC(=O)[C@H](CC(C)C)NC(=O)[C@H](CCCNC(=N)N)NC(=O)[C@@H](N)CCCNC(=N)N)C(=O)N[C@@H](CC(C)C)C(=O)N[C@@H](CCCNC(=N)N)C(=O)N[C@@H](Cc1c[nH]c2ccccc12)C(=O)N[C@H](CC(C)C)C(N)=O [RW-BP100-11D] (HELM PEPTIDE1{R.R.L.F.R.R.I.L.R.W.[dL].[am]}$$$$V2.0) | 77.81 ± 5.28 | 83.27 ± 4.56 | > 50 | >50 | >50 | 0.65 ± 0.60 | 1.42 ± 0.15 | 17.36 ± 1.92 | 46.97 ± 6.45 |  |
| CC[C@@H](C)[C@@H](NC(=O)[C@@H](CCCNC(=N)N)NC(=O)[C@@H](CCCNC(=N)N)NC(=O)[C@@H](Cc1ccccc1)NC(=O)[C@@H](CC(C)C)NC(=O)[C@@H](CCCNC(=N)N)NC(=O)[C@H](N)CCCNC(=N)N)C(=O)N[C@H](CC(C)C)C(=O)N[C@H](CCCNC(=N)N)C(=O)N[C@H](Cc1c[nH]c2ccccc12)C(=O)N[C@H](CC(C)C)C(N)=O [RW-BP100-All-D] (HELM PEPTIDE1{[dR].[dR].[dL].[dF].[dR].[dR].[dI].[dL].[dR].[dW].[dL].[am]}$$$$V2.0) | 14.23 ± 2.37 | 23.37 ± 1.58 | 3 to 12 | 6 (≈ 3.79 µM) | 6 (≈ 3.79 µM) | 1.94 ± 0.94 | 2.75 ± 0.23 | 30.39 ± 2.11 | 51.40 ± 1.94 |  |
| NC[C@H]1O[C@H](O[C@H]2[C@H](O)[C@@H](O[C@H]3O[C@H](CO)[C@@H](O)[C@H](N)[C@H]3O)[C@H](N)C[C@@H]2N)[C@H](O)[C@@H](O)[C@@H]1O [kanamycin] |  |  |  |  |  |  |  |  |  | Intracellular CFU versus the untreated group, S. enterica ATCC13076 (S. enterica ATCC13076; kanamycin 50 μg/mL): no significant difference; Intracellular CFU versus the untreated group, S. aureus ATCC29213 (S. aureus ATCC29213; kanamycin 50 μg/mL): no significant difference |
| CC[C@H](C)[C@H](NC(=O)[C@@H](CCCNC(=N)N)NC(=O)[C@H](CCCNC(=N)N)NC(=O)[C@H](Cc1ccccc1)NC(=O)[C@H](CC(C)C)NC(=O)[C@H](CCCNC(=N)N)NC(=O)[C@@H](N)CCCNC(=N)N)C(=O)N[C@@H](CC(C)C)C(=O)N[C@@H](CCCNC(=N)N)C(=O)N[C@@H](Cc1c[nH]c2ccccc12)C(=O)N[C@@H](CC(C)C)C(N)=O [RW-BP100-6D] (HELM PEPTIDE1{R.R.L.F.R.[dR].I.L.R.W.L.[am]}$$$$V2.0) | 58.87 ± 3.45 | 5.92 ± 2.63 | 3 to 12 | 12 (≈ 7.58 µM) | 12 (≈ 7.58 µM) | 2.33 ± 1.51 | 3.25 ± 0.23 | 32.57 ± 1.20 | 55.81 ± 2.87 |  |
| CC1(C)S[C@@H]2[C@H](NC(=O)[C@H](N)c3ccccc3)C(=O)N2[C@H]1C(=O)O [ampicillin] |  |  |  |  |  |  |  |  |  | Bacteria load in infected mouse skin, antibiotic control ([4]; ampicillin 1 mg/mL, 100 μL on skin lesion): did not decrease the bacteria load |
